Like-named read-outs stand apart in the source and are kept apart here. Marks after values point to notes of the source that are not given here.
Tests used:
[1] = pH 2.7
[2] = tested on: Phytophthora infestans; format: in vivo; conditions: tomato plants, spray, 500 ppm, grading 5 days after contamination
[3] = tested on: Plasmopara viticola; assay: Plasmopara test (grapevines)/preventive; format: in vivo; conditions: preventive spray, 10 ppm of active ingredient, evaluated 6 days after inoculation
Protocol: Solvent: 24.5 parts by weight of acetone • 24.5 parts by weight of dimethylacetamide
Emulsifier: 1 part by weight of alkylaryl polyglycol ether
To produce a suitable preparation of active compound, 1 part by weight of active compound is mixed with the stated amounts of solvent and emulsifier, and the concentrate is diluted with water to the desired concentration.
To test for preventive activity, young plants are sprayed with the preparation of active compound at the stated rate of application. After the spray coating has dried on, the plants are inoculated with an aqueous spore suspension of Plasmopara viticola and then remain for 1 day in an incubation cabinet at approximately 20° C. and a relative atmospheric humidity of 100%. The plant is subsequently placed for 4 days in a greenhouse at approximately 21° C. and a relative atmospheric humidity of approximately 90%. The plants are then misted and placed for 1 day in an incubation cabinet.
The test is evaluated 6 days after the inoculation. 0% means an efficacy which corresponds to that of the untreated control, while an efficacy of 100% means that no disease is observed.

[4] = tested on: Phytophthora infestans; format: in vivo; conditions: tomato, preventive spray, 100 ppm of active ingredient, evaluated 7 days after inoculation

| SMILES | LogP [1] | Eff. % [2] [%] | Eff. % [3] [%] | Eff. % [4] [%] |
| --- | --- | --- | --- | --- |
| CCCCC(CC)C(=O)Nc1cccc(CO/N=C(/c2ccccc2)c2noc(=O)n2C)n1 (centres unmarked) [Example 284] | 4.49 [a] | 95 | 79 | – |
| C#CCCOC(=O)Nc1cccc(CO/N=C(/c2ccccc2)c2noc(=O)n2CC#C)n1 [Example 86] | 3.46 [a] | – | – | 90 |
| CCCCOCC(=O)Nc1cccc(CO/N=C(/c2ccccc2)c2noc(=O)n2C)n1 [Example 240] | 3.97 [a] | 100 | 80 | – |
| Cn1c(/C(=N\OCc2cccc(NC(=O)OCC3CCCC3)n2)c2ccccc2)noc1=O [Example 16] | 4.53 [a] | – | 94 | 98 |
| CC(Oc1cccc(Cl)c1)C(=O)Nc1nc(CO/N=C(/c2ccccc2)c2noc(=O)n2C)cs1 (centres unmarked) [Example 321] | 4.1 [a] | 97 | 82 | – |
| Cc1cccc(C(=O)Nc2cccc(CO/N=C(/c3ccccc3)c3noc(=O)n3C)n2)c1 [Example 344] | 3.87 [a] | 100 | 93 | – |
| CCC(Oc1ccccc1)C(=O)Nc1nc(CO/N=C(/c2ccccc2)c2noc(=O)n2C)cs1 (centres unmarked) [Example 322] | 3.99 [a] | – | – | 75 |
| Cn1c(/C(=N\OCc2cccc(NC(=O)OCCC3CCCCC3)n2)c2ccccc2)noc1=O [Example 5] | 5.27 [a] | – | 88 | 95 |
| CC1c2ccccc2COC1C(=O)Nc1cccc(CO/N=C(/c2ccccc2)c2noc(=O)n2C)n1 (centres unmarked) [Example 291] | 4.35 [a] | 100 | 77 | – |
| CCCCCC(=O)Nc1cccc(CO/N=C(/c2cccc(C)c2)c2noc(=O)n2C)n1 [Example 355] | 4.24 [a] | 100 | 75 | – |
| Cn1c(/C(=N\OCc2cccc(NC(=O)CCC(C)(C)C)n2)c2ccccc2)noc1=O [Example 59] | 4.15 [a] | 100 | 98 | – |
| Cn1c(/C(=N\OCc2cccc(NC(=O)C(F)(F)Oc3ccccc3)n2)c2ccccc2)noc1=O [Example 307] | 4.08 [a] | – | 98 | – |
| Cn1c(/C(=N\OCc2cccc(NC(=O)CC3CCCC3)n2)c2ccccc2)noc1=O [Example 365] | 3.92 [a] | 100 | 98 | – |
| Cn1c(/C(=N\OCc2cccc(NC(=O)CCC3(C)CC3)n2)c2ccccc2)noc1=O [Example 166] | 3.87 [a] | 99 | 95 | – |
| Cc1ccc(C(=O)Nc2cccc(CO/N=C(/c3ccccc3)c3noc(=O)n3C)n2)cc1C [Example 401] | 4.16 [a] | 99 | 90 | – |
| Cn1c(/C(=N\OCc2csc(NC(=O)COC3CCCC3)n2)c2ccccc2)noc1=O [Example 195] | 3.73 [a] | – | 95 | – |
| C#CCCCC(=O)Nc1cccc(CO/N=C(/c2ccccc2)c2noc(=O)n2C)n1 [Example 302] | 3.17 [a] | 100 | 92 | – |
| COc1cccc(OCC(=O)Nc2cccc(CO/N=C(/c3ccccc3)c3noc(=O)n3C)n2)c1 [Example 51] | 3.73 [a] | – | 91 | – |
| Cn1c(C(=NOCc2cccc(NC(=O)c3ccc(Cl)cc3)n2)c2ccccc2)noc1=O [Example 245] | 4.01 [a] | – | 93 | – |
| Cn1c(/C(=N\OCc2cccc(NC(=O)c3ccccc3)n2)c2ccccc2)noc1=O [Example 54] | 3.51 [a] | 100 | 93 | – |
| Cn1c(/C(=N\OCc2csc(NC(=O)C(C)(C)C)n2)c2ccccc2)noc1=O [Example 154] | 3.42 [a] | – | – | 95 |
| COc1cccc(OC(C)C(=O)Nc2nc(CO/N=C(/c3ccccc3)c3noc(=O)n3C)cs2)c1 (centres unmarked) [Example 50] | 3.71 [a] | 94 | 95 | – |
| Cn1c(/C(=N\OCc2cccc(NC(=O)C3Cc4ccccc4CO3)n2)c2ccccc2)noc1=O (centres unmarked) [Example 85] | 4.17 [a] | 99 | 73 | – |
| Cn1c(/C(=N\OCc2csc(NC(=O)COc3cccc(F)c3)n2)c2ccccc2)noc1=O [Example 100] | 3.58 [a] | – | 74 | – |
| Cn1c(/C(=N\OCc2cccc(NC(=O)c3cccc(Br)c3)n2)c2ccccc2)noc1=O [Example 380] | 4.16 [a] | 93 | 95 | – |
| Cn1c(C(=NOCc2cccc(NCC3CCCCC3)n2)c2ccccc2)noc1=O [Example 116] | 3.02 [a] | – | 93 | – |

| SMILES | LogP [1] | Eff. % [2] [%] | Eff. % [3] [%] | Eff. % [4] [%] |
| --- | --- | --- | --- | --- |
| CCCCCC(=O)Nc1cccc(CO/N=C(/c2cccc(F)c2)c2noc(=O)n2C)n1 [Example 376] | 3.99 [a] | 100 | 93 | – |
| COc1cccc(OCC(=O)Nc2nc(CO/N=C(/c3ccccc3)c3noc(=O)n3C)cs2)c1 [Example 318] | 3.53 [a] | 99 | 93 | – |
| Cc1ccc(OCC(=O)Nc2cccc(CO/N=C(/c3ccccc3)c3noc(=O)n3C)n2)cc1 [Example 296] | 4.07 [a] | – | 74 | – |
| Cc1cccc(OC(C)C(=O)Nc2nc(CO/N=C(/c3ccccc3)c3noc(=O)n3C)cs2)c1 (centres unmarked) [Example 80] | 3.99 [a] | 98 | 98 | – |
| CCCCC(C)(C)C(=O)Nc1cccc(CO/N=C(/c2ccccc2)c2noc(=O)n2C)n1 [Example 316] | 4.63 [a] | – | 84 | – |
| Cn1c(/C(=N\OCc2cccc(NC(=O)c3ccc(Cl)c(Cl)c3)n2)c2ccccc2)noc1=O [Example 352] | 4.54 [a] | 100 | 79 | – |
| CC(C)CCC(=O)Nc1cccc(CO/N=C(/c2ccccc2)c2noc(=O)n2C)n1 [Example 102] | 3.85 [a] | 100 | 91 | – |
| C#CCCOC(=O)Nc1cccc(CO/N=C(/c2ccccc2)c2noc(=O)n2C(F)F)n1 [Example 58] | 3.64 [a] | – | – | 80 |
| CCCCCOC(=O)Nc1cccc(CO/N=C(\c2ccccc2)c2noc(=O)n2C)n1 [Example 26] | 4.24 [a] | – | – | 93 |
| Cc1ccc(C)c(C(=O)Nc2cccc(CO/N=C(/c3ccccc3)c3noc(=O)n3C)n2)c1 [Example 327] | 4.06 [a] | 100 | 95 | – |
| CCCCC(C)C(=O)Nc1cccc(CON=C(c2ccccc2)c2noc(=O)n2C)n1 (centres unmarked) [Example 244] | 4.2 [a] | 99 | 86 | – |
| Cn1c(/C(=N\OCc2cccc(NC(=O)CCC3CCC3)n2)c2ccccc2)noc1=O [Example 389] | 4.02 [a] | 99 | 100 | – |
| Cc1ccc(C)c(C(=O)Nc2nc(CO/N=C(/c3ccccc3)c3noc(=O)n3C)cs2)c1 [Example 336] | 3.94 [a] | 99 | 91 | – |
| Cn1c(/C(=N\OCc2cccc(NC(=O)c3cccc(I)c3)n2)c2ccccc2)noc1=O [Example 281] | 4.31 [a] | 97 | 97 | – |
| CCn1c(/C(=N\OCc2cccc(NC(=O)OC(C)(C)C)n2)c2ccccc2)noc1=O [Example 152] | 4.26 [a] | 95 | 70 | – |
| CC(OC(=O)Nc1cccc(CO/N=C(/c2ccccc2)c2noc(=O)n2C)n1)c1ccccc1 (centres unmarked) [Example 68] | 4.23 [a] | 100 | 90 | – |
| Cn1c(/C(=N\OCc2cccc(NC(=O)CCCCCl)n2)c2ccccc2)noc1=O [Example 404] | 3.44 [a] | 98 | 87 | – |
| CC(C)CC(=O)Nc1cccc(CO/N=C(/c2ccccc2)c2noc(=O)n2C)n1 [Example 340] | 3.44 [a] | 100 | 79 | – |
| C#CCCOC(=O)Nc1cccc(CO/N=C(/c2ccccc2)c2noc(=O)n2CC#N)n1 [Example 70] | 3.31 [a] | – | – | 84 |
| C#CCCOC(=O)Nc1cccc(CO/N=C(/c2cccc(C)c2)c2noc(=O)n2C)n1 [Example 343] | 3.59 [a] | 100 | 95 | – |
| Cn1c(/C(=N\OCc2csc(NC(=O)Cc3ccccc3)n2)c2ccccc2)noc1=O [Example 378] | 3.37 [a] | 100 | 95 | – |
| Cc1ccc(OC(C)C(=O)Nc2nc(CO/N=C(/c3ccccc3)c3noc(=O)n3C)cs2)cc1 (centres unmarked) [Example 312] | 4.02 [a] | 94 | 95 | – |
| CCC(C)COC(=O)Nc1cccc(CO/N=C(/c2ccccc2)c2noc(=O)n2C)n1 (centres unmarked) [Example 350] | 4.44 [a] | 98 | – | – |
| Cn1c(/C(=N\OCc2cccc(NC(=O)CC3CCCCC3)n2)c2ccccc2)noc1=O [Example 208] | 4.26 [a] | 100 | 91 | – |
| COc1cccc(C(=NOCc2cccc(NC(=O)OCc3ccccc3)n2)c2noc(=O)n2C)c1 [Example 290] | 4.04 [a] | 75 | – | – |
